Data from patent US12581252B2, “Substituted pyrrolo[3,4-b]pyridines as PI3K-α inhibitors” (Relay Therapeutics, Inc., priority 2020, dated 2026).

biological target: H1047R PIK3CA enzyme (Homo sapiens, UniProt P42336, H1047R); test: ADP-Glo Biochemical PIK3CA Kinase Assay
Sequence (P42336 whole entry H1047R): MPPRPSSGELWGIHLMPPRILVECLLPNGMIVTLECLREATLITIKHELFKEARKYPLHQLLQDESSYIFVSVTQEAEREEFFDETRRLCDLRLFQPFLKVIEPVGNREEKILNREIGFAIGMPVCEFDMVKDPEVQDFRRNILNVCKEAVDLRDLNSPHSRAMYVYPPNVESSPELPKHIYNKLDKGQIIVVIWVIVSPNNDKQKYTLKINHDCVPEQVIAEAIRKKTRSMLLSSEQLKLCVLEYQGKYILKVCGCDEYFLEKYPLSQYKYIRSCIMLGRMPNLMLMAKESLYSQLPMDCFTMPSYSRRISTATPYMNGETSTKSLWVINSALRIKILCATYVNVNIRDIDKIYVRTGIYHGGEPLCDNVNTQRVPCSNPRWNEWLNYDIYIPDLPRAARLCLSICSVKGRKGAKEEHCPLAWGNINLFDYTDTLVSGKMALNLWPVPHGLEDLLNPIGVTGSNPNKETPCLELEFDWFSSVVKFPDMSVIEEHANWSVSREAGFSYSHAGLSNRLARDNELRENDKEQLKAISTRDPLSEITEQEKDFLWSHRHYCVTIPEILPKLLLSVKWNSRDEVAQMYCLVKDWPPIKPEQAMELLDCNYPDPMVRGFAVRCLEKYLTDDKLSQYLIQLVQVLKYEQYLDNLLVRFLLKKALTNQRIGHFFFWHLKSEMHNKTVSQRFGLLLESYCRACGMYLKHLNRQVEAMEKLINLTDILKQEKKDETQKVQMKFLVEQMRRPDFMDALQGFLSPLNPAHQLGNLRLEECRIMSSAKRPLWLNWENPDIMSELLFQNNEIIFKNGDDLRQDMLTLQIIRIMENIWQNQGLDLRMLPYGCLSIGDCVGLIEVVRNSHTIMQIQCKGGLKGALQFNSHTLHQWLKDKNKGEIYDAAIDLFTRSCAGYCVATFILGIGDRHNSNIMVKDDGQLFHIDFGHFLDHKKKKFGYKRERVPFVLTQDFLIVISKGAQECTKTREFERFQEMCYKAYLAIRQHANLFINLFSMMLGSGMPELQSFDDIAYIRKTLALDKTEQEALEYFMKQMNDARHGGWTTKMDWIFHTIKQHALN
Sequence (P27986 whole entry partner): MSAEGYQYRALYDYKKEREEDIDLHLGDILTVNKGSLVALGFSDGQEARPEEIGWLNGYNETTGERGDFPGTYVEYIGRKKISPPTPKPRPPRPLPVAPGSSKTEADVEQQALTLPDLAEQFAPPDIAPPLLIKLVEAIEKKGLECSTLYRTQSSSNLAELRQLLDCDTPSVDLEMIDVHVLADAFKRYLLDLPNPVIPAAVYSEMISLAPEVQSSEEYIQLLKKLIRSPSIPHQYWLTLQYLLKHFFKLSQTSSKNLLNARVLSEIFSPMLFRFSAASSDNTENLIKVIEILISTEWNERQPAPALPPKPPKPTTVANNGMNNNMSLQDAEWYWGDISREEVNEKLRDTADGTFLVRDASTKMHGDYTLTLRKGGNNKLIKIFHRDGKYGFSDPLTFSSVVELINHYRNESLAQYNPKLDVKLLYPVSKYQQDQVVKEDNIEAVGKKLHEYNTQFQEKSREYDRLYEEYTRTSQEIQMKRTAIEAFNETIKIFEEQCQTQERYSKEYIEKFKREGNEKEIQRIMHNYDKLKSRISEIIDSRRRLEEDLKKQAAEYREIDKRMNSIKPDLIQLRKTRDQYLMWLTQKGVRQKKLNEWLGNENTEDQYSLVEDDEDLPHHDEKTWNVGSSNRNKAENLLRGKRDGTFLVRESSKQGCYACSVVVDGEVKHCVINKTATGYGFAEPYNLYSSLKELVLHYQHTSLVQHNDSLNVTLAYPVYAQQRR

Row | IC50 | Structure (SMILES)
1 | 10000 to 100000 nM | O=C(Nc1cc(-c2ccc3ncnn3c2)cc2c1C(c1cc(F)ccc1Cl)NC2=O)c1cc(CO)cc(C(F)(F)F)c1 (stereo not drawn) [Compound I-1773]
2 | ≤ 100 nM | N#Cc1cnc2ncc(-c3cc(NC(=O)c4cc(F)cc(C(F)(F)F)c4)c4c(c3)C(=O)NC4c3cc(F)ccc3Cl)cn12 (stereo not drawn) [Compound I-1796]
3 | 10000 to 100000 nM | O=C1NC(c2cc(F)ccc2Cl)c2c(NC(=O)N3CCc4ccccc4C3)cccc21 (stereo not drawn) [Compound I-2307]
4 | 100 to 500 nM | O=C(Nc1cc(C2CCO2)cc2c1C(c1cc(F)ccc1Cl)NC2=O)c1cc(F)cc(C(F)(F)F)c1 (racemic) [Compound I-662]
5 | 1000 to 10000 nM | O=C1N[C@@H](c2cc(F)ccc2Cl)c2c(NC(=O)[C@H]3CC[C@@H](C(F)(F)F)C3)cccc21 [Compound I-2085]
6 | ≤ 100 nM | O=C1Cc2c(cccc2-c2cc(NC(=O)c3cc(F)cc(C(F)(F)F)c3)c3c(c2)C(=O)NC3c2cc(F)ccc2Cl)N1 (stereo not drawn) [Compound I-1034]
7 | ≤ 100 nM | CC(C)(O)c1cc(NC(=O)N2CCc3ccccc32)c2c(c1)C(=O)N[C@H]2c1cc(F)ccc1Cl [Compound I-713]
8 | ≤ 100 nM | O=C(Nc1cc(NC(=O)C(F)F)cc2c1C(c1cc(F)ccc1Cl)NC2=O)c1cc(F)cc(C(F)(F)F)c1 (stereo not drawn) [Compound I-467]
9 | ≤ 100 nM | CS(=O)(=O)N1CCC[C@@H]1COc1cc(NC(=O)c2cc(F)cc(C(F)(F)F)c2)c2c(c1)C(=O)NC2c1cc(F)ccc1Cl (single isomer, unassigned) [Compound I-1378]
10 | ≤ 100 nM | CNC(=O)c1cc(NC(=O)c2nsc3ccccc23)c2c(c1)C(=O)NC2c1ccccc1C (stereo not drawn) [Compound I-123]
11 | 100 to 500 nM | N#CC1(COc2cc(NC(=O)N3C[C@H](O)c4cc(F)ccc43)c3c(c2)C(=O)N[C@H]3c2cc(F)ccc2Cl)CC1 (single isomer, unassigned) [Compound I-2553]
12 | ≤ 100 nM | C[C@@H](c1cc(NC(=O)c2cc(F)cc(C(F)(F)F)c2)c2c(c1)C(=O)N[C@H]2c1cc(F)ccc1Cl)S(C)(=O)=O (single isomer, unassigned) [Compound I-1641]
13 | 1000 to 10000 nM | O=C1NC(c2cccc(F)c2F)c2c(NC(=O)c3coc4c(F)cc(F)cc34)ccnc21 (stereo not drawn) [Compound I-210]
14 | 1000 to 10000 nM | O=C1Cc2cc(NC(=O)c3cc(F)cc(C(F)(F)F)c3)ccc2C(c2ccccc2Cl)N1 (stereo not drawn) [Compound I-1177]
15 | ≤ 100 nM | O=C(Nc1cc(-c2ccc3nnnn3c2)cc2c1[C@H](c1cc(F)ccc1Cl)NC2=O)c1cc(F)cc(C(F)(F)F)c1 [Compound I-1453]
16 | ≤ 100 nM | Cc1c(-c2cc(NC(=O)c3cc(F)cc(C(F)(F)F)c3)c3c(c2)C(=O)N[C@H]3c2cc(F)ccc2Cl)ccc2ncnn12 [Compound I-1876]
17 | ≤ 100 nM | O=C(Nc1cc(-c2ccc3ncnn3c2)cc2c1[C@H](c1cc(F)ccc1Cl)NC2=O)c1cccc(C(F)(F)F)c1 (stereo in doubt) [Compound I-1121]
18 | 1000 to 10000 nM | O=C(Nc1cccc2c(=O)[nH]n(C3CCCCC3)c12)c1cc(F)cc(C(F)(F)F)c1 [Compound I-629]
19 | ≤ 100 nM | O=C(Nc1cc(N2CCCc3ncccc32)cc2c1C(c1cc(F)ccc1Cl)NC2=O)c1cc(F)cc(C(F)(F)F)c1 (stereo not drawn) [Compound I-1227]
20 | 10000 to 100000 nM | O=C(Nc1cc(-c2ccc3ncnn3c2)cc2c1[C@@H](c1cc(F)ccc1Cl)NC2=O)c1cc(F)cc(OC(F)F)c1 (stereo in doubt) [Compound I-1170]
21 | 1000 to 10000 nM | O=C1N[C@@H](c2cc(F)ccc2Cl)c2c(NC(=O)N3C[C@](O)(C(F)(F)F)c4cc(F)ccc43)cc(-n3ncccc3=O)cc21 (single isomer, unassigned) [Compound I-2533]

Row | IC50 | Structure (SMILES)
22 | 100 to 500 nM | CC12CC3CC(F)(C1)CC(C(=O)Nc1cc(Br)cc4c1C(c1cc(F)ccc1Cl)NC4=O)(C3)C2 (stereo not drawn) [Compound I-1635]
23 | 1000 to 10000 nM | O=C1N[C@H](c2cc(F)ccc2Cl)c2c(NC(=O)N3C[C@](O)(C(F)(F)F)c4cc(F)ccc43)ccnc21 (single isomer, unassigned) [Compound I-2699]
24 | ≤ 100 nM | O=C(Nc1cc(C2=CCOC2)cc2c1C(c1cc(F)ccc1Cl)NC2=O)c1cc(F)cc(C(F)(F)F)c1 (stereo not drawn) [Compound I-643]
25 | 10000 to 100000 nM | Cn1c(Cl)cc(C(=O)Nc2cc(Br)cc3c2C(c2cc(F)ccc2Cl)NC3=O)cc1=O (stereo not drawn) [Compound I-1209]
26 | ≤ 100 nM | O=C(Nc1cc(-c2ccc3c(c2)OCO3)cc2c1C(c1cc(F)ccc1Cl)NC2=O)c1cc(F)cc(C(F)(F)F)c1 (stereo not drawn) [Compound I-741]
27 | 1000 to 10000 nM | O=C1N[C@H](c2cc(F)ccc2Cl)c2c(NC(=O)N3C[C@](O)(C(F)(F)F)c4cc(F)ccc43)cc(Cl)cc21 (single isomer, unassigned) [Compound I-2512]
28 | 100 to 500 nM | O=C(Nc1cc(Br)cc2c1C(c1cc(F)ccc1Cl)NC2=O)c1cc(F)cc2c1NC(=O)C2(F)F (stereo not drawn) [Compound I-1381]
29 | ≤ 100 nM | N#CCOc1ncc(-c2cc(NC(=O)c3cc(F)cc(C(F)(F)F)c3)c3c(c2)C(=O)NC3c2cc(F)ccc2Cl)cn1 (stereo not drawn) [Compound I-1530]
30 | ≤ 100 nM | N#Cc1nc2ccc(-c3cc(NC(=O)c4cc(F)cc(C(F)(F)F)c4)c4c(c3)C(=O)NC4c3cc(F)ccc3Cl)cn2n1 (stereo not drawn) [Compound I-1707]
31 | ≤ 100 nM | Cn1cc(-c2cc(NC(=O)c3cc(F)cc(C(F)(F)F)c3)c3c(c2)C(=O)NC3c2cc(F)ccc2Cl)ccc1=O (stereo not drawn) [Compound I-648]
32 | 1000 to 10000 nM | O=C1N[C@H](c2cc(F)ccc2Cl)c2c(NC(=O)N3C[C@@H](O)c4c(F)cccc43)cccc21 (single isomer, unassigned) [Compound I-2145]
33 | ≤ 100 nM | Cc1ccccc1C1NC(=O)c2cc(CO)cc(NC(=O)c3cc(F)cc(C(F)(F)F)c3)c21 (stereo not drawn) [Compound I-473]
34 | 1000 to 10000 nM | O=C(Nc1cc(Nc2cn[nH]c2)cc2c1[C@@H](c1cc(F)ccc1Cl)NC2=O)c1cc(F)cc(C(F)(F)F)c1 [Compound I-1259]
35 | 10000 to 100000 nM | O=C1NC(c2cc(F)ccc2Cl)c2ccc(-c3ccc4ncnn4c3)cc21 (stereo not drawn) [Compound I-1775]
36 | 500 to 1000 nM | C[C@@H]([C@@H]1C[C@H](O)CN1C(=O)Nc1cccc2c1[C@H](c1cc(F)ccc1Cl)NC2=O)C(F)(F)F (single isomer, unassigned) [Compound I-2393]
37 | ≤ 100 nM | Cn1cc(-c2cc(NC(=O)c3cc(F)cc(C(F)(F)F)c3)c3c(c2)C(=O)NC3c2cc(F)ccc2Cl)nn1 (stereo not drawn) [Compound I-879]
38 | 100 to 500 nM | Cc1ccccc1C1NC(=O)c2cccc(NC(=O)N3CC(C)c4ccccc43)c21 (stereo not drawn) [Compound I-95]
39 | ≤ 100 nM | O=C(Nc1cc(-c2ccc3nc(Cl)cn3c2)cc2c1C(c1cc(F)ccc1Cl)NC2=O)c1cc(F)cc(C(F)(F)F)c1 (stereo not drawn) [Compound I-1696]
40 | 10000 to 100000 nM | O=C1N[C@@H](c2cc(F)ccc2Cl)c2c(NC(=O)[C@H]3CCCNC3)cc(-c3ccc4ncnn4c3)cc21 (racemic) [Compound I-1847]
41 | ≤ 100 nM | O=C(Nc1cc(OC(F)F)cc2c1C(c1cc(F)ccc1Cl)NC2=O)c1cc(F)cc(C(F)(F)F)c1 (stereo not drawn) [Compound I-812]
42 | 10000 to 100000 nM | O=C1N[C@H](c2cc(F)ccc2Cl)c2c(NC(=O)N3C[C@H](O)C[C@@H](C(F)(F)F)C3)cccc21 (single isomer, unassigned) [Compound I-2236]

Row | IC50 | Structure (SMILES)
43 | ≤ 100 nM | O=C(Nc1cc(N2CCCC2=O)cc2c1C(c1cc(F)ccc1Cl)NC2=O)c1cc(F)cc(C(F)(F)F)c1 (stereo not drawn) [Compound I-1273]
44 | ≤ 100 nM | O=C(Nc1cc(-c2cnn(C(F)F)c2)cc2c1C(c1cc(F)ccc1Cl)NC2=O)c1cc(F)cc(Cl)c1 (stereo not drawn) [Compound I-1863]
45 | 1000 to 10000 nM | O=C(Cc1cc(F)ccc1C(F)(F)F)Nc1cc(Br)cc2c1C(c1cc(F)ccc1Cl)NC2=O (stereo not drawn) [Compound I-560]
46 | 10000 to 100000 nM | COc1ccc2c(c1)CCN2C(=O)Nc1cccc2c1C(c1cc(F)ccc1Cl)NC2=O (stereo not drawn) [Compound I-2437]
47 | ≤ 100 nM | N#CC1CN(S(=O)(=O)Cc2cc(NC(=O)c3cc(F)cc(C(F)(F)F)c3)c3c(c2)C(=O)NC3c2cc(F)ccc2Cl)C1 (stereo not drawn) [Compound I-1556]
48 | 10000 to 100000 nM | Cc1ccccc1C1NC(=O)c2cccc(NC(=O)N3CCCCC3)c21 (stereo not drawn) [Compound I-433]
49 | 10000 to 100000 nM | O=C1NC(c2cc(F)ccc2Cl)c2c(NC(=O)C3CCc4ccccc4CC3)cccc21 (stereo not drawn) [Compound I-2374]
50 | 1000 to 10000 nM | Cc1ccc(F)cc1[C@H]1NC(=O)c2cc(Br)cc(NC(=O)c3cc(F)cc(C(F)(F)F)c3)c21 [Compound I-757]
51 | 500 to 1000 nM | CC(C)(C)C1CCCN1C(=O)Nc1cccc2c1C(c1cc(F)ccc1Cl)NC2=O (single isomer, unassigned) [Compound I-2432]
52 | 1000 to 10000 nM | O=C(Nc1cc(-c2cccnc2)cc2c1[C@H](c1cc(F)ccc1Cl)NC2=O)c1cc(F)cc(C(F)(F)F)c1 (stereo in doubt) [Compound I-1008]
53 | 1000 to 10000 nM | O=C1N[C@H](c2cc(F)ccc2Cl)c2c(NC(=O)N3C[C@@H](O)c4cc(F)ccc43)cc(-n3nccn3)cc21 (single isomer, unassigned) [Compound I-2345]
54 | ≤ 100 nM | O=C(Nc1cc(Br)cc2c1C(c1cc(F)ccc1Cl)NC2=O)c1cc(F)cc(S(F)(F)(F)(F)F)c1 (stereo not drawn) [Compound I-774]
55 | 100 to 500 nM | CN1CCO/C1=N\c1cc(NC(=O)c2cc(F)cc(C(F)(F)F)c2)c2c(c1)C(=O)NC2c1cc(F)ccc1Cl (stereo not drawn) [Compound I-2202]
56 | 10000 to 100000 nM | O=C1N[C@H](c2cc(F)ccc2Cl)c2c(NC(=O)N3C[C@@H](O)C[C@@H]3CC(F)(F)F)cccc21 (racemic) [Compound I-2165]
57 | 1000 to 10000 nM | O=C(Nc1cc(Br)cc2c1C(c1cc(F)ccc1Cl)NC2=O)c1ccc(OC(F)F)c(F)c1 (stereo not drawn) [Compound I-1286]
58 | 10000 to 100000 nM | O=C(NCCC(O)C(F)(F)F)c1cccc2c1C(c1cc(F)ccc1Cl)NC2=O (stereo not drawn) [Compound I-2094]
59 | 10000 to 100000 nM | O=C(Nc1cccc2c1C(C1NC3CCC1C3)NC2=O)c1cc(F)cc(C(F)(F)F)c1 (stereo not drawn) [Compound I-2076]
60 | 1000 to 10000 nM | O=C1N[C@H](c2cc(F)ccc2Cl)c2c(NC(=O)N3C[C@@](O)(C(F)(F)F)c4cc(F)ccc43)cc(C(F)F)cc21 (single isomer, unassigned) [Compound I-2577]
61 | 100 to 500 nM | O=C(Nc1cc(CNCc2ccccc2)nc2c1C(c1cc(F)ccc1Cl)NC2=O)c1cc(F)cc(C(F)(F)F)c1 (stereo not drawn) [Compound I-444]
62 | 10000 to 100000 nM | NS(=O)(=O)c1cc(-c2ccc3ncnn3c2)cc2c1C(c1cc(F)ccc1Cl)NC2=O (stereo not drawn) [Compound I-1970]
63 | 10000 to 100000 nM | O=C1NC(c2cc(F)ccc2Cl)c2c(Nc3ccncc3)cc(Br)cc21 (stereo not drawn) [Compound I-2025]
